The results in this text go back to patent US12509444B2, “Compounds and methods for CD73 modulation and indications therefor” (Plexxikon Inc., priority 2019, dated 2025).

pIC50: −log10 of the molar value.

Test [1] deals with T1, Human CD73 (amino acid residues 27-549) (Homo sapiens, UniProt P21589).
T1 construct: Human CD73 (amino acid residues 27-549); His tag (N); made in house; host or cells: E. coli
T1 sequence (P21589 27-549): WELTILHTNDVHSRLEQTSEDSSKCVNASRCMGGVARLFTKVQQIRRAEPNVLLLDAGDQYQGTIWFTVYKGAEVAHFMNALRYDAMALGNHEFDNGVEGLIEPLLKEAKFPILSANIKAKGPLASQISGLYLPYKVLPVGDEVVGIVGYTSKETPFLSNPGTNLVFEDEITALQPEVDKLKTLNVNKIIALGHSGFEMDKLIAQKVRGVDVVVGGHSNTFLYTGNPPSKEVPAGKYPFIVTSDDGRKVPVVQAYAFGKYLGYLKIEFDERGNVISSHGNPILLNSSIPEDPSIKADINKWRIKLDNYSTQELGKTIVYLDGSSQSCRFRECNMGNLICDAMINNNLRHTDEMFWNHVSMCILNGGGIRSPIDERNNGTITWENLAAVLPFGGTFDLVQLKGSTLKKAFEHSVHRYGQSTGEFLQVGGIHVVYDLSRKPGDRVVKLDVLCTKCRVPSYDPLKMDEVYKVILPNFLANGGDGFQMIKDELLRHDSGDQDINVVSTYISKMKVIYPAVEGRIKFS
The experiment in a line: CD73 enzymatic assay (luciferase-based indirect assay, CellTiter-Glo). Type of test: biochemical. The following applies: 0.4 nM CD73, 150 μM AMP, 1 hour at room temperature. In outline:
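Residual AMP inhibits luciferase, so luminescence reports CD73 turnover; read with CellTiter-Glo 2.0 plus 1 μM final ATP, 30 min. Reaction used 0.4 nM N-His CD73 (27-549, E. coli), 150 μM AMP, HEPES pH 7.4 with Tween 20, 1 h at room temperature. IC50 fitted by nonlinear regression.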
A general note: In ATP-based viability assays light output follows the ATP content of the culture.

Another test deals with T2, human CD73 (Homo sapiens, UniProt P21589).
T2 construct: expressed in transfected cells
T2 sequence (P21589 27-549): T1 sequence (P21589 27-549)
The experiment in a line: Inhibitor activity against CD73 in cell based assay (CD73 expressing CHO-K1 cells). The note with it: CHO-K1 cells expressing human CD73, 150 μM AMP, 4 hours of incubation; read-out: CHO-K1 CELL VARIANT: CD73 IC50. The procedure, abridged:
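Residual supernatant AMP was quantified via CellTiter-Glo luminescence (1 μM ATP added, 30 min, room temperature) after a 4 h exposure of human CD73-expressing CHO-K1 cells to 150 μM AMP plus compound, top final 10 μM, 8 points. IC50 came from nonlinear regression of percent inhibition.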

The pIC50 is the negative decadic logarithm of the IC50, by convention in mol/L. Consider `O=C(NC1CCN(C(=O)c2ccc(C(F)(F)F)nc2)CC1)O[C@@H]1CCN(c2cn[nH]c(=O)c2Cl)C1` [P-0419, (R)-1-(5-chloro-6-oxo-1,6-dihydropyridazin-4-yl)pyrrolidin-3-yl (1-(6-(trifluoromethyl)nicotinoyl)piperidin-4-yl)carbamate], for which the pIC50 (in test [1]; on human CD73) was 5.00 to 9.00 throughout.

In the case of `O=C(NC1CCN(C(=O)Cc2ccccc2Br)CC1)O[C@@H]1CCN(c2cn[nH]c(=O)c2Cl)C1` [P-0420, (R)-1-(5-chloro-6-oxo-1,6-dihydropyridazin-4-yl)pyrrolidin-3-yl (1-(2-(2-bromophenyl)acetyl)piperidin-4-yl)carbamate], the pIC50 (in test [1]; on human CD73) was 5.00 to 9.00 each time.

On to `O=C(NC1CCN(C(=O)Cc2ccccc2Cl)CC1)O[C@@H]1CCN(c2cn[nH]c(=O)c2Cl)C1` [P-0421, (R)-1-(5-chloro-6-oxo-1,6-dihydropyridazin-4-yl)pyrrolidin-3-yl (1-(2-(2-chlorophenyl)acetyl)piperidin-4-yl)carbamate], for which the pIC50 (in test [1]; at human CD73) was 5.00 to 9.00 each time.

Regarding `O=C(NC1CCN(C(=O)Cc2c(F)cccc2Cl)CC1)O[C@@H]1CCN(c2cn[nH]c(=O)c2Cl)C1` [P-0422, (R)-1-(5-chloro-6-oxo-1,6-dihydropyridazin-4-yl)pyrrolidin-3-yl (1-(2-(2-chloro-6-fluorophenyl)acetyl)piperidin-4-yl)carbamate], the pIC50 (in test [1]; at human CD73) was 5.00 to 9.00 each time.

Consider `O=C(NC1C2CCC1CC(O)C2)O[C@@H]1CCN(c2cn[nH]c(=O)c2Cl)C1` (stereo partly drawn) [P-0423, (R)-1-(5-chloro-6-oxo-1,6-dihydropyridazin-4-yl)pyrrolidin-3-yl (3-hydroxybicyclo[3.2.1]octan-8-yl)carbamate], for which the pIC50 (in test [1]; at human CD73) was 5.00 to 9.00 throughout.

On to `O=C(NC1CCCC(F)(F)C1)O[C@@H]1CCN(c2cn[nH]c(=O)c2Cl)C1` (stereo partly drawn) [P-0424, (R)-1-(5-chloro-6-oxo-1,6-dihydropyridazin-4-yl)pyrrolidin-3-yl (3,3-difluorocyclohexyl)carbamate], for which the pIC50 (in test [1]; on human CD73) was 5.00 to 9.00 throughout.

As for `CC1CCCC(NC(=O)O[C@@H]2CCN(c3cn[nH]c(=O)c3Cl)C2)C1` (stereo partly drawn) [P-0425, (R)-1-(5-chloro-6-oxo-1,6-dihydropyridazin-4-yl)pyrrolidin-3-yl (3-methylcyclohexyl)carbamate], the pIC50 (in test [1]; on human CD73) was 5.00 to 9.00 in each case.

As for `O=C(NC1CCCC12CC2)O[C@@H]1CCN(c2cn[nH]c(=O)c2Cl)C1` (stereo partly drawn) [P-0426, (R)-1-(5-chloro-6-oxo-1,6-dihydropyridazin-4-yl)pyrrolidin-3-yl spiro[2.4]heptan-4-ylcarbamate], the pIC50 (in test [1]; on human CD73) was 5.00 to 9.00 each time.

For the compound `N#CC12CC(NC(=O)O[C@@H]3CCN(c4cn[nH]c(=O)c4Cl)C3)(C1)C2` [P-0427, (R)-1-(5-chloro-6-oxo-1,6-dihydropyridazin-4-yl)pyrrolidin-3-yl (3-cyanobicyclo[1.1.1]pentan-1-yl)carbamate], the pIC50 (in test [1]; on human CD73) was 5.00 to 9.00 each time.

`O=C(NC12CC(C1)C2)O[C@@H]1CCN(c2cn[nH]c(=O)c2Cl)C1` [P-0428, (R)-1-(5-chloro-6-oxo-1,6-dihydropyridazin-4-yl)pyrrolidin-3-yl bicyclo[1.1.1]pentan-1-ylcarbamate]: the pIC50 (in test [1]; at human CD73) was 5.00 to 9.00 throughout.

On to `O=C(NC1(CO)CCCC1)O[C@@H]1CCN(c2cn[nH]c(=O)c2Cl)C1` [P-0429, (R)-1-(5-chloro-6-oxo-1,6-dihydropyridazin-4-yl)pyrrolidin-3-yl (1-(hydroxymethyl)cyclopentyl) carbamate], for which the pIC50 (in test [1]; at human CD73) was 5.00 to 9.00 in each case.

Take `O=C(Cn1ncc(N2CC[C@@H](OC(=O)NC3CCC(F)(F)CC3)C2)c(Cl)c1=O)NO` [P-0430, (R)-1-(5-chloro-1-(2-(hydroxyamino)-2-oxoethyl)-6-oxo-1,6-dihydropyridazin-4-yl)pyrrolidin-3-yl (4,4-difluorocyclohexyl)carbamate]: the pIC50 in test [1] is 5.00 to 9.00; at human CD73, 4.00 to 5.00.

Turning to `O=C(NC1CC(F)(F)C1)O[C@@H]1CCN(c2cnn(CCO)c(=O)c2Cl)C1` [P-0431, (R)-1-(5-chloro-1-(2-hydroxyethyl)-6-oxo-1,6-dihydropyridazin-4-yl)pyrrolidin-3-yl (3,3-difluorocyclobutyl)carbamate], the pIC50 (in test [1]; at human CD73) was 5.00 to 9.00 throughout.

Turning to `CC1(NC(=O)O[C@@H]2CCN(c3cn[nH]c(=O)c3Cl)C2)CC(F)(F)C1` [P-0432, (R)-1-(5-chloro-6-oxo-1,6-dihydropyridazin-4-yl)pyrrolidin-3-yl (3,3-difluoro-1-methylcyclobutyl)carbamate], the pIC50 (in test [1]; on human CD73) was 5.00 to 9.00 throughout.

Consider `O=C(NC12CC(F)(C1)C2)O[C@@H]1CCN(c2cn[nH]c(=O)c2Cl)C1` [P-0433, (R)-1-(5-chloro-6-oxo-1,6-dihydropyridazin-4-yl)pyrrolidin-3-yl (3-fluorobicyclo[1.1.1]pentan-1-yl)carbamate], for which the pIC50 (in test [1]; on human CD73) was 5.00 to 9.00 each time.

`O=C(N[C@H]1CC[C@@H](NC2CCC2)CC1)O[C@@H]1CCN(c2cn[nH]c(=O)c2Cl)C1` [P-0434, (R)-1-(5-chloro-6-oxo-1,6-dihydropyridazin-4-yl)pyrrolidin-3-yl ((1s,4S)-4-(cyclobutylamino)cyclohexyl) carbamate]: the pIC50 (in test [1]; on human CD73) was 5.00 to 9.00 throughout.

For `NCCn1ncc(N2CC[C@@H](OC(=O)N[C@H]3CC[C@@H](NC(=O)NC4CC4)CC3)C2)c(Cl)c1=O` [P-0435, (R)-1-(1-(2-aminoethyl)-5-chloro-6-oxo-1,6-dihydropyridazin-4-yl)pyrrolidin-3-yl ((1s,4S)-4-(3-cyclopropylureido)cyclohexyl) carbamate], the pIC50 (in test [1]; at human CD73) was 5.00 to 9.00 in each case.

For the compound `C#CC1(NC(=O)O[C@@H]2CCN(c3cn[nH]c(=O)c3Cl)C2)CCCCC1` [P-0436, (R)-1-(5-chloro-6-oxo-1,6-dihydropyridazin-4-yl)pyrrolidin-3-yl (1-ethynylcyclohexyl)carbamate], the pIC50 (in test [1]; on human CD73) was 5.00 to 9.00 each time.

For `CC1(NC(=O)O[C@@H]2CCN(c3cn[nH]c(=O)c3Cl)C2)CCC(F)(F)CC1` [P-0437, (R)-1-(5-chloro-6-oxo-1,6-dihydropyridazin-4-yl)pyrrolidin-3-yl (4,4-difluoro-1-methylcyclohexyl)carbamate], the pIC50 (in test [1]; on human CD73) was 5.00 to 9.00 each time.

In the case of `O=C(NC1CCN(C(=O)Nc2ncccc2F)CC1)O[C@@H]1CCN(c2cn[nH]c(=O)c2Cl)C1` [P-0438, (R)-1-(5-chloro-6-oxo-1,6-dihydropyridazin-4-yl)pyrrolidin-3-yl (1-((3-fluoropyridin-2-yl)carbamoyl)piperidin-4-yl)carbamate], the pIC50 (in test [1]; on human CD73) was 5.00 to 9.00 in each case.

Turning to `CC1(NC(=O)O[C@@H]2CCN(c3cnn(CCO)c(=O)c3Cl)C2)CC(F)(F)C1` [P-0439, (R)-1-(5-chloro-1-(2-hydroxyethyl)-6-oxo-1,6-dihydropyridazin-4-yl)pyrrolidin-3-yl (3,3-difluoro-1-methylcyclobutyl)carbamate], the pIC50 (in test [1]; at human CD73) was 5.00 to 9.00 in each case.

On to `O=C(NC1C2CCC1CC(F)(F)C2)O[C@@H]1CCN(c2cn[nH]c(=O)c2Cl)C1` (stereo partly drawn) [P-0440, (R)-1-(5-chloro-6-oxo-1,6-dihydropyridazin-4-yl)pyrrolidin-3-yl (3,3-difluorobicyclo[3.2.1]octan-8-yl)carbamate], for which the pIC50 (in test [1]; on human CD73) was 5.00 to 9.00 throughout.

In the case of `O=C(NC1CC2C(C1)C2(F)F)O[C@@H]1CCN(c2cn[nH]c(=O)c2Cl)C1` (stereo partly drawn) [P-0441, (R)-1-(5-chloro-6-oxo-1,6-dihydropyridazin-4-yl)pyrrolidin-3-yl (6,6-difluorobicyclo[3.1.0]hexan-3-yl)carbamate], the pIC50 (in test [1]; on human CD73) was 5.00 to 9.00 in each case.

As for `COc1ccc(CC(=O)N2CCC(NC(=O)O[C@@H]3CCN(c4cn[nH]c(=O)c4Cl)C3)CC2)cc1` [P-0442, (R)-1-(5-chloro-6-oxo-1,6-dihydropyridazin-4-yl)pyrrolidin-3-yl (1-(2-(4-methoxyphenyl)acetyl)piperidin-4-yl)carbamate], the pIC50 (in test [1]; on human CD73) was 5.00 to 9.00 throughout.
